Test results published in PubChem BioAssay AID493105 (The Scripps Research Institute Molecular Screening Center, 2011).
The source made the active and inactive calls. The rule behind the calls is not given here.

Experiments:
Experiment in all cases: LYPLA1 and LYPLA2 inhibitors, biochemical, gel-based ABPP, fluorescence, recombinant and endogenous enzyme (AID 493105)
emLYPLA1 = conditions: fluorescent probe labeling, membrane fraction, at 20 µM, hits give high values
emLYPLA2 = conditions: fluorescent probe labeling, membrane fraction, at 20 µM, hits give high values
rhLYPLA2 = conditions: fluorescent probe labeling, membrane fraction, at 20 µM, hits give high values
rhLYPLA1 = conditions: fluorescent probe labeling, soluble fraction, at 20 µM, hits give high values

Row | SMILES | inhibition (emLYPLA1) | inhibition (emLYPLA2) | inhibition (rhLYPLA2) | inhibition (rhLYPLA1)
1 | Cc1nn(-c2ccccc2)c(N2CCCC2)c1/C=N/Nc1ccc(S(N)(=O)=O)cc1[N+](=O)[O-] | 0% (inactive) | 1% (inactive) | 0% (inactive) | 7% (inactive)
2 | COc1ccc(/C=C2/Sc3ccc(C(=O)NCCCN4CCOCC4)cc3NC2=O)cc1OC | 5% (inactive) | 0% (inactive) | 1% (inactive) | 0% (inactive)
3 | Cc1c(Br)c([N+](=O)[O-])nn1CC(=O)Nc1ccc(Cc2ccncc2)cc1 | 8% (inactive) | 8% (inactive) | 0% (inactive) | 0% (inactive)
4 | COc1ccc2c(c1)C(=O)[C@H](O)[C@@H](c1ccc(OC)c(Br)c1)O2 | 0% (inactive) | 73% | 51% | 0% (inactive)
5 | COc1ccc(-n2nc(C(=O)NCC(=O)N3CCN(Cc4ccc5c(c4)OCO5)CC3)c3ccccc3c2=O)cc1OC | 8% (inactive) | 68% | 50% | 35%
6 | C/C(=C\c1ccccc1)CN1CCN(c2cccc(Cl)c2)CC1 | 0% (inactive) | 0% (inactive) | 0% (inactive) | 0% (inactive)
7 | CC(=O)c1ccc(N2CCN(C(=O)c3ccc(C(=O)c4ccccc4)cc3)CC2)cc1 | 13% (inactive) | 0% (inactive) | 2% (inactive) | 0% (inactive)
8 | Cc1[nH]c2ccccc2c1C(=O)CN1CCN(C/C=C/c2ccccc2)CC1 | 0% (inactive) | 0% (inactive) | 0% (inactive) | 0% (inactive)
9 | O=C(N1CCOCC1)n1nnc2ccccc21 | 99% | 88% | 76% | 98%
10 | Cc1ccc(C)c(C(=O)CCC(=O)N2CCN(c3cccc(C(F)(F)F)c3)CC2)c1 | 4% (inactive) | 4% (inactive) | 0% (inactive) | 31%
11 | CCC(=O)N1CCN(c2ccc(NC(=S)NC(=O)c3ccc(OC)c([N+](=O)[O-])c3)cc2)CC1 | 13% (inactive) | 40% | 21% (inactive) | 25% (inactive)
12 | N#Cc1c(NC(=O)CN2CCN(C(=O)c3ccco3)CC2)sc2c1CCCCC2 | 0% (inactive) | 6% (inactive) | 0% (inactive) | 20% (inactive)
13 | COc1ccc(-n2nc(C(=O)NCC(=O)N3CCN(Cc4ccccc4)CC3)c3ccccc3c2=O)cc1OC | 23% (inactive) | 15% (inactive) | 7% (inactive) | 16% (inactive)
14 | COc1ccccc1-n1cc(C(=O)NCC(=O)N2CCN(Cc3ccccc3)CC2)c2ccccc2c1=O | 1% (inactive) | 52% | 39% | 0% (inactive)
15 | COc1ccc(-n2c(C)c([N+](=O)[O-])c3ccc(O)c(CN4CCCCC4)c32)cc1 | 0% (inactive) | 0% (inactive) | 0% (inactive) | 21% (inactive)
16 | COc1ccc(OCC(O)CN2CCC(CN3C(=O)c4cccc5cccc(c45)C3=O)CC2)cc1 (stereo not drawn) | 0% (inactive) | 16% (inactive) | 9% (inactive) | 0% (inactive)
17 | COc1cc(/C=N/N2CCN(Cc3ccc(Cl)cc3)CC2)cc(Br)c1O | 0% (inactive) | 0% (inactive) | 0% (inactive) | 31%
18 | N#Cc1ccccc1OCCCN1CCC(Cc2ccccc2)CC1 | 11% (inactive) | 9% (inactive) | 0% (inactive) | 21% (inactive)
19 | Cc1ccc(OCC(=O)N2CCN(c3ccc([N+](=O)[O-])c(N4CCOCC4)c3)CC2)cc1 | 0% (inactive) | 0% (inactive) | 0% (inactive) | 10% (inactive)
20 | O=C(CN1CCN(C(=O)c2ccco2)CC1)Nc1cc(C(F)(F)F)ccc1Cl | 60% | 13% (inactive) | 0% (inactive) | 78%
21 | COc1ccc(OC)c(NC(=O)C2CCC(CNc3c(N4CCC(C)CC4)c(=O)c3=O)CC2)c1 (stereo not drawn) | 2% (inactive) | 3% (inactive) | 7% (inactive) | 27% (inactive)

Row | SMILES | inhibition (emLYPLA1) | inhibition (emLYPLA2) | inhibition (rhLYPLA2) | inhibition (rhLYPLA1)
22 | CCC(=O)N1CCN(c2ccc(NC(=S)NC(=O)c3cccc([N+](=O)[O-])c3)cc2)CC1 | 8% (inactive) | 6% (inactive) | 5% (inactive) | 0% (inactive)
23 | CC(NC(=O)c1ccco1)C(=O)N1CCN(c2cccc(C(F)(F)F)c2)CC1 (stereo not drawn) | 0% (inactive) | 12% (inactive) | 5% (inactive) | 20% (inactive)
24 | N#Cc1c(N)nc(SCc2ccncc2)c(C#N)c1-c1cccs1 | 10% (inactive) | 16% (inactive) | 11% (inactive) | 3% (inactive)
25 | O=[N+]([O-])c1cccc(/C=N/N2CCN(Cc3ccc(Cl)cc3)CC2)c1 | 0% (inactive) | 0% (inactive) | 0% (inactive) | 0% (inactive)
26 | COc1ccc(N2CCN(C(=O)C3CCC(Cn4c(=S)[nH]c5ccccc5c4=O)CC3)CC2)cc1 (stereo not drawn) | 2% (inactive) | 67% | 45% | 0% (inactive)
27 | OC(COc1ccc(Cl)cc1)CN1CCN(c2cccc(Cl)c2)CC1 (stereo not drawn) | 0% (inactive) | 0% (inactive) | 0% (inactive) | 0% (inactive)
28 | COc1cccc(N=C2NC(=O)/C(=C/c3cc([N+](=O)[O-])ccc3O)S2)c1 | 20% (inactive) | 6% (inactive) | 0% (inactive) | 0% (inactive)
29 | Clc1ccc(C(c2ccc(Cl)cc2)n2cc[n+](CC(OCc3ccc(Cl)cc3Cl)c3ccc(Cl)cc3Cl)c2)cc1 (stereo not drawn) | 0% (inactive) | 0% (inactive) | 0% (inactive) | 0% (inactive)
30 | CCN(CC)S(=O)(=O)c1cccc(-c2nnc(SCCOc3ccccc3)o2)c1 | 0% (inactive) | 17% (inactive) | 19% (inactive) | 8% (inactive)
31 | O=C(NCCNC(=O)c1cc(OCC(F)(F)F)ccc1OCC(F)(F)F)Nc1cccc(C(F)(F)F)c1 | 12% (inactive) | 7% (inactive) | 0% (inactive) | 57%
32 | O=C(CCCCCCN1C(=O)c2ccccc2C1=O)N1CCC(c2ccccc2)C1 (stereo not drawn) | 0% (inactive) | 17% (inactive) | 2% (inactive) | 17% (inactive)
33 | NS(=O)(=O)c1ccc(CCNC(=O)c2cc([N+](=O)[O-])ccc2N2CCCCC2)cc1 | 0% (inactive) | 0% (inactive) | 0% (inactive) | 49%
34 | O=C(CCN1CCN(c2ccc([N+](=O)[O-])cc2)CC1)c1ccc(Cl)cc1 | 9% (inactive) | 1% (inactive) | 6% (inactive) | 0% (inactive)
35 | COc1ccc(-n2nc(C(=O)NCC(=O)N3CCN(c4cccc(Cl)c4)CC3)c3ccccc3c2=O)c(OC)c1 | 16% (inactive) | 83% | 61% | 0% (inactive)
36 | COc1cc(COc2ccc3c(C)c(Cc4ccccc4)c(=O)oc3c2)cc(OC)c1OC | 0% (inactive) | 4% (inactive) | 0% (inactive) | 0% (inactive)
37 | O=C(CN1CCN(c2ccccn2)CC1)Nc1cc(C(F)(F)F)ccc1Cl | 0% (inactive) | 9% (inactive) | 6% (inactive) | 36%
38 | O=C(COc1ccc(Cl)cc1)N1CCN(c2cccc(C(F)(F)F)c2)CC1 | 0% (inactive) | 9% (inactive) | 0% (inactive) | 0% (inactive)
39 | Cc1ccc([N+](=O)[O-])c(OCCCN2CCC(Cc3ccccc3)CC2)c1 | 0% (inactive) | 2% (inactive) | 0% (inactive) | 7% (inactive)
40 | CC(=O)N1CCC2(CC1)C/C(=N\NC(=S)Nc1ccccc1C)c1cc(O)ccc1O2 | 2% (inactive) | 5% (inactive) | 3% (inactive) | 0% (inactive)
41 | O=C(Nc1ccc2oc(-c3cccnc3)nc2c1)c1ccc2c(c1)OCCO2 | 0% (inactive) | 0% (inactive) | 0% (inactive) | 0% (inactive)
42 | Cc1ccc(OCC(=O)N2CCN(C(=O)CCC3CCCC3)CC2)cc1 | 14% (inactive) | 14% (inactive) | 3% (inactive) | 43%
